Results from article PMC6502695 (Natural product research, 2018).

Experiments:
Format in all cases: in vitro ADME
human SULT 1A3 = human SULT 1A3 (Homo sapiens, UniProt P0DMM9); assay: Sulfating activity of purified human SULT1A3
[1] = Sulfating activity of human liver cytosol; settings: mean ± SD, three experiments
human SULT 1A1 = human SULT 1A1 (Homo sapiens, UniProt P50225); assay: Sulfating activity of purified human SULT1A1; settings: substrate 10 μM, mean ± SD, three experiments
human SULT 1C4 = human SULT 1C4 (Homo sapiens, UniProt O75897); assay: Sulfating activity of purified human SULT1C4; settings: substrate 10 μM, mean ± SD, three experiments
human SULT 1A2 = human SULT 1A2 (Homo sapiens, UniProt P50226); assay: Sulfating activity of purified human SULT1A2; settings: substrate 10 μM, mean ± SD, three experiments
[2] = Sulfating activity of human small intestine cytosol; settings: mean ± SD, three experiments
[3] = SULT 1A3, substrate 10 μM, mean ± SD, three experiments

human SULT 1A1, sequence (P50225 whole entry): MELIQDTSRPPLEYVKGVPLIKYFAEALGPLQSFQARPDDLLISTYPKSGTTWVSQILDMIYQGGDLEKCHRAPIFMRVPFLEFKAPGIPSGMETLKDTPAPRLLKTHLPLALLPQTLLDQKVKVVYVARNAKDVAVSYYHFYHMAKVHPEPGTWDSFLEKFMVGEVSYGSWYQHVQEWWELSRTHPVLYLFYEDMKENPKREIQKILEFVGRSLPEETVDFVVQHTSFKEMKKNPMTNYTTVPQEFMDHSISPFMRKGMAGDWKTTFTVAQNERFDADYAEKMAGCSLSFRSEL
human SULT 1A2, sequence (P50226 whole entry): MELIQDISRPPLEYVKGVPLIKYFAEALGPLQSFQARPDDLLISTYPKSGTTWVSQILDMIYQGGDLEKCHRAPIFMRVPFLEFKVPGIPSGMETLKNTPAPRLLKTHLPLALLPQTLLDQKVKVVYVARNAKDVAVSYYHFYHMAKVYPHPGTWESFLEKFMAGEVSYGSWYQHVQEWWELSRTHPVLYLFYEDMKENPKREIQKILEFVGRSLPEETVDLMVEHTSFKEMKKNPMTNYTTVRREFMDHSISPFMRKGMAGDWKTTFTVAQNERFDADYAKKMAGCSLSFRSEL
human SULT 1C4, sequence (O75897 whole entry): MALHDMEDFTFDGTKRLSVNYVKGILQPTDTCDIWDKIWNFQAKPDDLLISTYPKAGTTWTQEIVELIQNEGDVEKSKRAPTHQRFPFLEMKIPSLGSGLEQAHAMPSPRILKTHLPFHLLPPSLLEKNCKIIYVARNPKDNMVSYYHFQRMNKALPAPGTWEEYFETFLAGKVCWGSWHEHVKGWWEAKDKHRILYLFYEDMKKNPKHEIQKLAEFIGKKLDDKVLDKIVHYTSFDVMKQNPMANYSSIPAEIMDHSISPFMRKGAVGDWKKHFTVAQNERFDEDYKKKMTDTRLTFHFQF
human SULT 1A3, sequence (P0DMM9 whole entry): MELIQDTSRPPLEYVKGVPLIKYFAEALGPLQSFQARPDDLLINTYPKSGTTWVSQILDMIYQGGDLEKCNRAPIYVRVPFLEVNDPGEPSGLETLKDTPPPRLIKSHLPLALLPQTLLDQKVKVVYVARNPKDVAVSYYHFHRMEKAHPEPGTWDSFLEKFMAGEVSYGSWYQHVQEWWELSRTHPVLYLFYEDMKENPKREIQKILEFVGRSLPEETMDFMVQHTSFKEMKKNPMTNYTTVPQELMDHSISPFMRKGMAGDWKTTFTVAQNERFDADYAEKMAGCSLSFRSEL

Row | SMILES | Specific Activity (nmol substrate sulfated/min/mg purified enzyme) (human SULT 1A3; [3]) [nmol/min/mg] | Specific Activity (pmol substrate sulfated/min/mg protein) ([1]; substrate 10 μM) [pmol/min/mg] | Specific Activity (pmol substrate sulfated/min/mg protein) ([1]; substrate 50 μM) [pmol/min/mg] | Specific Activity (nmol substrate sulfated/min/mg purified enzyme) (human SULT 1A1) [nmol/min/mg] | Specific Activity (nmol substrate sulfated/min/mg purified enzyme) (human SULT 1C4) [nmol/min/mg] | Specific Activity (nmol substrate sulfated/min/mg purified enzyme) (human SULT 1A2) [nmol/min/mg] | Specific Activity (pmol substrate sulfated/min/mg protein) ([2]; substrate 10 μM) [pmol/min/mg] | Specific Activity (pmol substrate sulfated/min/mg protein) ([2]; substrate 50 μM) [pmol/min/mg] | Specific Activity (nmol substrate sulfated/min/mg purified enzyme) (human SULT 1A3; human, 10 μM) [nmol/min/mg]
1 | O=c1cc(-c2ccc(O)cc2)oc2cc(O)cc(O)c12 [Apigenin] | 6.38 ± 0.40 | 20.87 ± 5.39 | 25.04 ± 2.20 | 10.67 ± 0.99 | 3.58 ± 0.09 | 7.90 ± 0.32 | 88.59 ± 1.07 | 113.24 ± 0.32 | 
2 | COc1ccc([C@@H]2CC(=O)c3c(O)cc(O)cc3O2)cc1O [Hesperetin] | 29.80 ± 0.74 | 139.79 ± 6.87 | 181.73 ± 13.25 | 44.17 ± 1.16 | 13.34 ± 0.49 | 28.16 ± 0.38 | 458.26 ± 11.82 | 643.61 ± 45.12 | 
3 | O=C1C[C@@H](c2ccc(O)cc2)Oc2cc(O)cc(O)c21 [Naringenin] |  | 135.32 ± 15.67 | 156.97 ± 17.94 | 24.85 ± 0.65 | 11.99 ± 0.17 | 17.51 ± 0.31 | 252.86 ± 13.22 | 354.21 ± 13.98 | 14.90 ± 0.15
